Source: ChEMBL document CHEMBL1148565 (Bioorg Med Chem Lett, 2006)

Target: Carbonic anhydrase 12 (Homo sapiens, UniProt O43570)
Sequence (O43570 whole entry): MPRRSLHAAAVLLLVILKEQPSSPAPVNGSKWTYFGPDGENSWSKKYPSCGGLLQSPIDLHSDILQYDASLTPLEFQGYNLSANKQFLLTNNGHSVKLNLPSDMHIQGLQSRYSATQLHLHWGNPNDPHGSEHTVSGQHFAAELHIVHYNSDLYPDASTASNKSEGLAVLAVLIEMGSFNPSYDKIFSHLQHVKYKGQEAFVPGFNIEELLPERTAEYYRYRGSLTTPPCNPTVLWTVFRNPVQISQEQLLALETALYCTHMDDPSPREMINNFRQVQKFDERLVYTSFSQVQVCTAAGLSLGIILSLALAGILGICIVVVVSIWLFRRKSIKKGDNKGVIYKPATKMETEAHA
Description: Inhibitory activity against cloned human CA12

Ki: 18 nM
SMILES: Cc1ccc(-c2cc(C(F)(F)F)nn2-c2ccc(S(N)(=O)=O)cc2)cc1 [CELECOXIB]
